From ChEMBL document CHEMBL3621192, “Novel anti-HIV-1 NNRTIs based on a pyrazolo[4,3-d]isoxazole backbone scaffold: design, synthesis and insights into the molecular basis of action” (Medchemcomm, 2014)

Experiments:
[1] = Cytotoxicity against human CEM-SS cells by MTS assay; format: cell-based
[2] = test system: Human immunodeficiency virus 1; assay: Antiviral activity against HIV1 3B infected in MT4 cells assessed as inhibition of virus-induced cytopathic effect by MTT assay; format: functional, organism-based; conditions: Human immunodeficiency virus 1, 3B
[3] = Cytotoxicity against human MT4 cells by MTT assay; format: cell-based
[4] = Therapeutic index, ratio of CC50 for human CEM-SS cells to EC50 for HIV1 RF infected in CEM-SS cells; format: cell-based; conditions: read-out: Ratio CC50/EC50
[5] = target: Human immunodeficiency virus type 1 reverse transcriptase (Human immunodeficiency virus 1, UniProt Q72547); assay: Inhibition of HIV1 recombinant reverse transcriptase assessed as incorporation of [32P]GTP into poly(rC).oligo(dG) template primer
[6] = Therapeutic index, ratio of CC50 for human MT4 cells to EC50 for HIV1 3B infected in MT4 cells; format: cell-based; conditions: read-out: Ratio CC50/EC50
[7] = Metabolic stability in rat plasma assessed as half life; format: ADME, cell-free
[8] = test system: Human immunodeficiency virus 1; assay: Antiviral activity against HIV1 RF infected in CEM-SS cells assessed as inhibition of virus-induced cytopathic effect by MTS assay; format: functional, organism-based; conditions: Human immunodeficiency virus 1, RF

IC50 [5] [nM]	half-life [7] [min]	Structure (SMILES)	CC50 [1] [nM]	EC50 [2] [nM]	CC50 [3] [nM]	selectivity ratio [4]	selectivity ratio [6]	EC50 [8] [nM]
0.018	274	N/N=C(\N)N1Nc2onc(-c3ccccc3)c2C1c1ccc(Cl)cc1 (stereo unspecified)	340	0.29	170	739	586	0.46
	88.9	O=C1Nc2ccc(Cl)cc2[C@@](C#CC2CC2)(C(F)(F)F)O1 [EFAVIRENZ]	550	0.98	320			0.92
0.019	265	Cc1nc(N2Nc3onc(-c4ccccc4)c3C2c2ccc(Cl)cc2)sc1/N=N/c1ccccc1 (stereo unspecified)	450	0.3	260	833	867	0.54
0.037	132	NC(=S)N1Nc2onc(-c3ccccc3)c2C1c1ccc(Cl)cc1 (stereo unspecified)	360	0.28	340	462	1210	0.78
0.019	154	CC1=C(/N=N/c2ccc(C)cc2)N=C(N2Nc3onc(-c4ccccc4)c3C2c2ccc(Cl)cc2)NN1 (stereo unspecified)	360	0.49	330	837	673	0.43
0.036	234	COc1ccc(/N=N/c2sc(N3Nc4onc(-c5ccccc5)c4C3c3ccc(Cl)cc3)nc2C)cc1 (stereo unspecified)	340	0.44	460	971	1050	0.35
0.027	365	Cc1nc(N2Nc3onc(-c4ccccc4)c3C2c2ccc(Cl)cc2)sc1/N=N/c1ccc([N+](=O)[O-])cc1 (stereo unspecified)	250	0.18	280	1000	1560	0.25
0.016	244	Cc1nc(N2Nc3onc(-c4ccccc4)c3C2c2ccc(Cl)cc2)sc1/N=N/c1ccc(Br)cc1 (stereo unspecified)	140	0.27	390	412	1440	0.34
0.035	454	Cc1nc(N2Nc3onc(-c4ccccc4)c3C2c2ccc(Cl)cc2)sc1/N=N/c1ccc(Cl)cc1 (stereo unspecified)	330	0.46	340	917	739	0.36
0.046	343	Cc1csc(N2Nc3onc(-c4ccccc4)c3C2c2ccc(Cl)cc2)n1 (stereo unspecified)	440	0.35	230	936	657	0.47
0.028	243	CC1=C(/N=N/c2ccc(Cl)cc2)N=C(N2Nc3onc(-c4ccccc4)c3C2c2ccc(Cl)cc2)NN1 (stereo unspecified)	270	0.37	450	403	1220	0.67
0.027	343	Cc1ccc(/N=N/c2sc(N3Nc4onc(-c5ccccc5)c4C3c3ccc(Cl)cc3)nc2C)cc1 (stereo unspecified)	250	0.55	450	1000	818	0.25
0.045	123	CC1=C(/N=N/c2ccccc2)N=C(N2Nc3onc(-c4ccccc4)c3C2c2ccc(Cl)cc2)NN1 (stereo unspecified)	230	0.33	450	523	1360	0.44
